PubChem BioAssay (NCI)
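Each compound was tested at five concentrations against cells in 96-well plates for 48 hours. Definition used: TGI = concentration required for complete inhibition of growth.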

Tests used:
Test in all cases: inhibition of tumour cell growth, NCI panel, 48 h
[1] = tested on: M19-MEL melanoma
[2] = tested on: DLD-1 colon
[3] = tested on: SNB-19 CNS
[4] = tested on: HCT-116 colon
[5] = tested on: OVCAR-8 ovarian
[6] = tested on: M14 melanoma
[7] = tested on: IGROV1 ovarian
[8] = tested on: UACC-62 melanoma
[9] = tested on: K-562 leukemia
[10] = tested on: A498 renal
[11] = tested on: HL-60(TB) leukemia
[12] = tested on: HOP-18 NSCLC
[13] = tested on: EKVX NSCLC
[14] = tested on: SK-MEL-5 melanoma
[15] = tested on: SK-MEL-2 melanoma
[16] = tested on: ACHN renal
[17] = tested on: SK-MEL-28 melanoma
[18] = tested on: SN12C renal
[19] = tested on: HCT-15 colon
[20] = tested on: HT29 colon
[21] = tested on: OVCAR-3 ovarian
[22] = tested on: SNB-75 CNS
[23] = tested on: HCC-2998 colon
[24] = tested on: KM12 colon
[25] = tested on: KM20L2 colon
[26] = tested on: NCI-H23 lung
[27] = tested on: DMS 273 small cell lung
[28] = tested on: SW-620 colon
[29] = tested on: COLO 205 colon
[30] = tested on: OVCAR-4 ovarian
[31] = tested on: SF-539 CNS
[32] = tested on: NCI-H226 lung
[33] = tested on: LXFL 529 NSCLC
[34] = tested on: HOP-92 NSCLC
[35] = tested on: SF-295 CNS
[36] = tested on: LOX IMVI melanoma
[37] = tested on: SK-OV-3 ovarian
[38] = tested on: NCI-H460 lung
[39] = tested on: RPMI-8226 leukemia
[40] = tested on: TK-10 renal
[41] = tested on: UO-31 renal
[42] = tested on: 786-0 renal
[43] = tested on: DMS 114 small cell lung
[44] = tested on: MOLT-4 leukemia
[45] = tested on: CCRF-CEM leukemia
[46] = tested on: A549 NSCLC
[47] = tested on: U251 CNS
[48] = tested on: SNB-78 CNS
[49] = tested on: UACC-257 melanoma
[50] = tested on: RXF 393 renal
[51] = tested on: OVCAR-5 ovarian
[52] = tested on: MALME-3M melanoma
[53] = tested on: HOP-62 NSCLC
[54] = tested on: SF-268 CNS
[55] = tested on: CAKI-1 renal
[56] = tested on: SR leukemia

COC(=O)[C@@]12C3=NO[C@]1(C(=O)OC)C(O[Si](C)(C)C(C)(C)C)[C@H]1OC(C)(C)O[C@H]1[C@@H]2C(OCc1ccccc1)CC3 (some centres undefined)
TGI [1]: > 100 µM
TGI [2]: > 100 µM
TGI [3]: 99.8 µM
TGI [4]: > 100 µM
TGI [5]: > 100 µM
TGI [6]: > 100 µM
TGI [7]: > 100 µM
TGI [8]: > 100 µM
TGI [9]: > 100 µM
TGI [10]: > 100 µM
TGI [11]: > 100 µM
TGI [12]: > 100 µM
TGI [13]: > 100 µM
TGI [14]: > 100 µM
TGI [15]: > 100 µM
TGI [16]: 28 µM
TGI [17]: > 100 µM
TGI [18]: > 100 µM
TGI [19]: > 100 µM
TGI [20]: > 100 µM
TGI [21]: > 100 µM
TGI [22]: 58 µM
TGI [23]: > 100 µM
TGI [24]: > 100 µM
TGI [25]: > 100 µM
TGI [26]: > 100 µM
TGI [27]: > 100 µM
TGI [28]: > 100 µM
TGI [29]: > 100 µM
TGI [30]: 97.2 µM
TGI [31]: > 100 µM
TGI [32]: > 100 µM
TGI [33]: > 100 µM
TGI [34]: 22.6 µM
TGI [35]: > 100 µM
TGI [36]: > 100 µM
TGI [37]: > 100 µM
TGI [38]: 23.7 µM
TGI [39]: > 100 µM
TGI [40]: > 100 µM
TGI [41]: > 100 µM
TGI [42]: > 100 µM
TGI [43]: > 100 µM
TGI [44]: > 100 µM
TGI [45]: > 100 µM
TGI [46]: > 100 µM
TGI [47]: > 100 µM

CC(=O)N1[C@H](C(=O)O)CS[C@H]1c1ccncc1
TGI [1]: > 100 µM
TGI [2]: > 100 µM
TGI [3]: > 100 µM
TGI [48]: > 100 µM
TGI [4]: > 100 µM
TGI [5]: > 100 µM
TGI [49]: > 100 µM
TGI [50]: > 100 µM
TGI [6]: > 100 µM
TGI [51]: > 100 µM
TGI [52]: > 100 µM
TGI [7]: > 100 µM
TGI [8]: > 100 µM
TGI [9]: > 100 µM
TGI [10]: > 100 µM
TGI [11]: > 100 µM
TGI [12]: > 100 µM
TGI [13]: > 100 µM
TGI [14]: > 100 µM
TGI [53]: > 100 µM
TGI [16]: > 100 µM
TGI [17]: > 100 µM
TGI [54]: > 100 µM
TGI [55]: > 100 µM
TGI [18]: > 100 µM
TGI [19]: > 100 µM
TGI [20]: > 100 µM
TGI [21]: > 100 µM
TGI [22]: > 100 µM
TGI [56]: > 100 µM
TGI [23]: > 100 µM
TGI [24]: > 100 µM
TGI [25]: > 100 µM
TGI [26]: > 100 µM
TGI [28]: > 100 µM
TGI [29]: > 100 µM
TGI [30]: > 100 µM
TGI [31]: > 100 µM
TGI [32]: > 100 µM
TGI [33]: > 100 µM
TGI [34]: > 100 µM
TGI [35]: > 100 µM
TGI [36]: > 100 µM
TGI [38]: > 100 µM
TGI [39]: > 100 µM
TGI [40]: > 100 µM
TGI [41]: > 100 µM
TGI [42]: > 100 µM
TGI [43]: > 100 µM
TGI [44]: > 100 µM
TGI [45]: > 100 µM
TGI [46]: > 100 µM
